Earlier results as cited in patent US4717569A, “Unit dosage form of sparingly soluble medicaments” (Sterling Drug Inc., priority 1984, dated 1988).

Key:
[1] = pH 6.0-7.0, intestinal juices
[2] = in patients, background
[3] = system: pituitary gonadotrophins; details: in patients, background

SMILES | solubility at intestinal pH [1] | oestrogenic or progestational activity [2] | effect on pituitary gonadotrophins [3]
OCCN(CCO)c1nc(N2CCCCC2)c2nc(N(CCO)CCO)nc(N3CCCCC3)c2n1 [dipyridamole] | insoluble | – | –
C#C[C@]1(O)CC[C@H]2[C@@H]3CCC4=Cc5oncc5C[C@]4(C)[C@H]3CC[C@@]21C [Compound A, 17α-pregna-2,4-diene-20-yno[2,3-d]isoxazol-17-ol] | – | without exhibiting oestrogenic or progestational activity | inhibits the synthesis or release of pituitary gonadotrophins
